Reference: patent publication US20230141981A1, “NOVEL COMPOUNDS AND COMPOSITION FOR TARGETED THERAPY OF KIDNEY-ASSOCIATED CANCERS” (SHANGHAI MICURX PHARMACEUTICALS CO., LTD, priority 2020, published 2023)
Bridge positions count the residues as written; N and C are the ends. Square brackets hold non-standard residues; d marks the D form. Peptide text beside a SMILES is read from it. * marks the point of attachment. X1 = CNC(=O)c1ccccc1Sc1ccc2c(/C=C/c3ccccn3)nn(C(=O)N(CCNC(=O)CC[C@H](N)C(=O)O)CCC(=O)*)c2c1; X3 = CNC(=O)c1ccccc1Sc1ccc2c(/C=C/c3ccccn3)nn(C(=O)*)c2c1; Dab = NCC[C@H](N)C(=O)O

Assays:
[1] = Mouse PK: axitinib concentration in blood plasma and kidney tissue post-administration; assay type: in vivo; details: oral gavage, single dose 10 mg/kg
Description: Preferential accumulation of compounds provided herein in kidneys (or near the site of a kidney cancer) may be evaluated by pharmacokinetic (PK) tests, such as in a standard rat PK test.
In PK studies, the levels (concentration) of a therapeutic drug is determined in key body compartments, such as blood and select organ tissues, is determined over a given time course. […] For therapy of renal cancers, the targeted organ is kidney.

Caki-1 = experiment: In vitro inhibition of cancer cells, CTG assay, 72 h; assay type: cell-based, human; details: Caki-1, 72 h incubation
Description: In vitro activity of compounds provided herein may be assessed by standard testing procedures using various cancer cell lines (alongside normal cell comparators), such as described, for example, in ACS Pharmacol. Transl. Sci. 2019, vol. 2, p. 18; J. Med. Chem. 2018, vol. 61, p. 5304; and methods in references cited therein.
Therein, Caki-1 is a human clear cell renal cell carcinoma (ccRCC) line. The ACTHN cell line was derived from the pleural effusion of a patient with metastatic renal carcinoma. The 786-O cell line is a hypertriploid renal cancer cell carcinoma cell line. Generally, cells were plated into […] microplates and pre-incubated for 24 h. Subsequently, the test compound solutions were added, and cells growth inhibition analyzed with 9-point data plot. After 72 h of the incubation, the number and proportion of the viable cells was determined by CTG assay, and IC50 values calculated.

[2] = 14-days repeat-dose mouse tolerability test; details: in vivo, 18 mg/kg/day, read-out: well-tolerated dose, 14-days repeat-dose
Description: In addition the high efficacy against renal cancers, such drug must be well-tolerated.

**Q.** Which “Blood Plasma Conc. (axitinib)” value ([1]; T = 4 h) does the source give for `CNC(=O)c1ccccc1Sc1ccc2c(/C=C/c3ccccn3)n[nH]c2c1` [Axitinib, N-methyl-2-[[3-[(E)-2-pyridin-2-ylethenyl]-1H-indazol-6-yl]sulfanyl]benzamide] here?
**A.** T = 4 h: 95.1 ng/mL

**Q.** What about the “Blood Plasma Conc. (axitinib)” value ([1]; T = 6 h) of the same compound?
**A.** T = 6 h: 35.4 ng/mL

**Q.** For `CNC(=O)c1ccccc1Sc1ccc2c(/C=C/c3ccccn3)nn(C(=O)N[C@@H](CCN)C(=O)N[C@H](C(=O)N[C@@H](CCN)C(=O)N[C@H]3CCNC(=O)[C@H]([C@@H](C)O)NC(=O)[C@H](CCN)NC(=O)[C@H](CCN)NC(=O)[C@H](CC(C)C)NC(=O)[C@@H](Cc4ccccc4)NC(=O)[C@H](CCN)NC3=O)[C@@H](C)O)c2c1` [Example 17] (X3-[Dab]T[Dab][Dab][Dab][dF]L[Dab][Dab]T; lactam 4-C), which IC50 (Caki-1) is on record?
**A.** 8.6 µM

**Q.** With `CNC(=O)c1ccccc1Sc1ccc2c(/C=C/c3ccccn3)nn(C(=O)N(CCNC(=O)CC[C@H](N)C(=O)O)CCC(=O)N[C@H](C(=O)N[C@@H](CCN)C(=O)N[C@H]3CCNC(=O)[C@H]([C@@H](C)O)NC(=O)[C@H](CCN)NC(=O)[C@H](CCN)NC(=O)[C@H](CC(C)C)NC(=O)[C@@H](Cc4ccccc4)NC(=O)[C@H](CCN)NC3=O)[C@@H](C)O)c2c1` [Example 29] (X1-T[Dab][Dab][Dab][dF]L[Dab][Dab]T; lactam 3-C; N-terminus assumed) as the compound, how does the MTD at 336 h [2] read?
**A.** ≥ 18 mg/kg/day

**Q.** For `Cc1ccc(Nc2nccc(N(C)c3ccc4c(C)n(C)nc4c3)n2)cc1S(N)(=O)=O` [Pazopanib, 5-[[4-[(2,3-dimethylindazol-6-yl)-methylamino]pyrimidin-2-yl]amino]-2-methylbenzenesulfonamide], which IC50 (Caki-1; Homo sapiens) is on record?
**A.** 19.4 µM

**Q.** For `CCN(CC)CCNC(=O)c1c(C)[nH]c(/C=C2\C(=O)Nc3ccc(F)cc32)c1C` [Sunitinib, (Z)—N-(2-(diethylamino)ethyl)-5-((5-fluoro-2-oxoindolin-3-ylidene)methyl)-2,4-dimethyl-1H-pyrrole-3-carboxamide], which IC50 (Caki-1; Homo sapiens) is on record?
**A.** 6.9 µM
